From PMC11752117 (Journal of Traditional and Complementary Medicine, 2024)
Like-named read-outs stand apart in the source and are kept apart here.

Conditions: for concentration in plasma (molar) / concentration in plasma / concentration in lung tissue: 4 h after administration, respective extract 1000 mg/kg p.o.; for concentration in plasma / concentration in lung tissue: mean ± SD; for calculated concentration in lung tissue (molar): on the basis of lung water content approximately 80 % by weight
[1] = Day 1, infected hamsters, n = 4

SMILES | concentration in plasma (molar) (Day 1) | concentration in plasma [1] | concentration in lung tissue (Day 1) | calculated concentration in lung tissue (molar) (Day 1) | concentration in plasma (molar) (Day 3) | concentration in lung tissue (Day 3) | concentration in plasma (Day 3) | calculated concentration in lung tissue (molar) (Day 3) | concentration in plasma (molar) (Day 7) | concentration in lung tissue (Day 7) | concentration in plasma (Day 7) | calculated concentration in lung tissue (molar) (Day 7) | average concentrations in lung tissue (range over sampling days, respective extract 1000 mg/kg/day p.o.)
C=C1CC[C@@H]2[C@](C)(CO)[C@H](O)CC[C@@]2(C)[C@@H]1C/C=C1/C(=O)OC[C@H]1O [Andrographolide, andrographolide] | ~5.48 µM | 1921.3 ± 508.4 ng/mL | 0.750 ± 0.206 µg/g | 1.72 µM | ~5.51 µM | 0.800 ± 0.144 µg/g | 1930.1 ± 257.7 ng/mL | 1.83 µM | ~8.01 µM | 0.850 ± 0.181 µg/g | 2808.1 ± 547.4 ng/mL | ~1.94 µM | 
COc1cc(O)c(C(=O)[C@@H]2[C@H](CC=C(C)C)C(C)=CC[C@H]2c2ccccc2)c(O)c1 [Panduratin A, panduratin A] | ~4.21 µM | 1710.4 ± 284.3 ng/mL | 0.186 ± 0.015 µg/g | 0.37 µM | ~7.27 µM | 0.262 ± 0.047 µg/g | 2954.1 ± 582.1 ng/mL | 0.52 µM |  |  |  |  | 0.19 to 0.26 µg/g
